The values that follow come from article PMC8270344, “Enantioenriched Positive Allosteric Modulators Display Distinct Pharmacology at the Dopamine D1 Receptor” (Molecules, 2021).

The structures appear in SMILES notation.

In this test the target is T1, dopamine D1 receptor (hD1R) (Homo sapiens, UniProt P21728).
T1 construct: gene DRD1; hD1R stably expressed in FlpIn CHO cells
T1 sequence (P21728 whole entry): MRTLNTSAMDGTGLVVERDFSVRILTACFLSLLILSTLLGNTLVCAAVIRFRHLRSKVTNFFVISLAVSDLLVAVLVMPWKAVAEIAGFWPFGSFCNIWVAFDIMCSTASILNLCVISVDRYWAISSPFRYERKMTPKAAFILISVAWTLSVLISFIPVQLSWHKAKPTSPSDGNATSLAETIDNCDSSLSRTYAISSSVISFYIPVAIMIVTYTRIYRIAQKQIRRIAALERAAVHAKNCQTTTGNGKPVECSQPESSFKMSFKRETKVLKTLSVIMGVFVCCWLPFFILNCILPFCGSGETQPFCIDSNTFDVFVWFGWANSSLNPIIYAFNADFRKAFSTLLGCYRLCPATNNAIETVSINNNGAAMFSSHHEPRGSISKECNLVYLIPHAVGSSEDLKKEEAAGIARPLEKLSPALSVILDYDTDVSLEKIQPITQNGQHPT
Description: cAMP BRET (CAMYEL) assay with dopamine curves, operational model of allostery (functional KB). The class given is cell-based. As to conditions: read-out: pKB (KB, μM) ^1 (converted).
Consider `Cc1ccc(Cl)c(NC(=O)C2(C)CC3c4ccccc4C2c2ccccc23)c1Cl` (racemic) [rac-2, rel-(9R,10R,12S)-N-(2,6-Dichloro-3-methylphenyl)-12-methyl-9,10-dihydro-9,10-ethanoanthracene-12-carboxamide], for which the Kb was 1.6 µM.

Take `Cc1ccc(Cl)c(NC(=O)[C@]2(C)C[C@H]3c4ccccc4[C@@H]2c2ccccc23)c1Cl` [(R)-2, (9R,10S,12S)-N-(2,6-Dichloro-3-methylphenyl)-12-methyl-9,10-dihydro-9,10-ethanoanthracene-12-carboxamide]: the Kb is 7.6 µM.

Regarding `Cc1ccc(Cl)c(NC(=O)[C@@]2(C)C[C@H]3c4ccccc4[C@@H]2c2ccccc23)c1Cl` [(S)-2, (9S,10R,12R)-N-(2,6-Dichloro-3-methylphenyl)-12-methyl-9,10-dihydro-9,10-ethanoanthracene-12-carboxamide], the Kb was 1 µM.
